Test results reported in patent US20230091042A1, “SMARCA2-VHL DEGRADERS” (AMGEN INC., priority 2020, published 2023).

What was measured:
SMARCA2 = target: T1, SMARCA2 (Homo sapiens, UniProt P51531); assay: SMARCA2 MSD assay in A375 cells (SMARCA2 degradation, 2 h); format: cell-based; conditions: 2 h compound treatment, N/C = no curve; for DC50: read-out: A375 SMARCA2 MSD IC50 IP
T1 construct: endogenous in cells; host or cells: A375 cells (ATCC CRL-1619)
Protocol: (§1) SMARCA2 and SMARCA4 MSD Assays in A375 Cells:
A375 cells (ATCC® CRL-1619™) were cultured in RPMI 1640 Medium (ThermoFisher Scientific 11875093) containing 10% fetal bovine serum (ThermoFisher Scientific 16000044) and 1× penicillin-streptomycin-glutamine (ThermoFisher Scientific 10378016). Sixteen hours prior to compound treatment, cells were seeded in 96-well cell culture plates (Corning 3904) at a density of 2.5×10^5 cells/well (90 uL/well) and incubated at 37° C., 5% CO2. A 1:3 compound dose-response titration was diluted in growth media (1:20), added to appropriate wells of a cell culture plate (1:10) and then assay plates were incubated at 37° C., 5% CO2. After 2 h of compound treatment, cells were lysed in MSD lysis buffer (MSD R60TX-2) containing protease (Roche 04693116001) and phosphatase (Roche 04906837001) inhibitors.
. Plates were washed with 300 μL per well MSD wash buffer (MSD R61TX-1) between each step. Following the last incubation, plates were washed with MSD wash buffer then 150 uL of MSD read buffer (MSD R92TC-2) was added to each well. Plates were immediately read on a MSD plate reader (MSD Sector Imager 6000) and data was analyzed using a 4-parameter logistic model to calculate IC50 values.

SMARCA4 = target: T2, SMARCA4 (Homo sapiens, UniProt P51532); assay: SMARCA4 MSD assay in A375 cells (SMARCA4 degradation, 2 h); format: cell-based; conditions: 2 h compound treatment, N/C = no curve
T2 construct: After 2 h of compound treatment, cells were lysed in MSD lysis buffer; endogenous in cells; host or cells: A375 cells (ATCC CRL-1619)
T2 sequence (P51532 whole entry): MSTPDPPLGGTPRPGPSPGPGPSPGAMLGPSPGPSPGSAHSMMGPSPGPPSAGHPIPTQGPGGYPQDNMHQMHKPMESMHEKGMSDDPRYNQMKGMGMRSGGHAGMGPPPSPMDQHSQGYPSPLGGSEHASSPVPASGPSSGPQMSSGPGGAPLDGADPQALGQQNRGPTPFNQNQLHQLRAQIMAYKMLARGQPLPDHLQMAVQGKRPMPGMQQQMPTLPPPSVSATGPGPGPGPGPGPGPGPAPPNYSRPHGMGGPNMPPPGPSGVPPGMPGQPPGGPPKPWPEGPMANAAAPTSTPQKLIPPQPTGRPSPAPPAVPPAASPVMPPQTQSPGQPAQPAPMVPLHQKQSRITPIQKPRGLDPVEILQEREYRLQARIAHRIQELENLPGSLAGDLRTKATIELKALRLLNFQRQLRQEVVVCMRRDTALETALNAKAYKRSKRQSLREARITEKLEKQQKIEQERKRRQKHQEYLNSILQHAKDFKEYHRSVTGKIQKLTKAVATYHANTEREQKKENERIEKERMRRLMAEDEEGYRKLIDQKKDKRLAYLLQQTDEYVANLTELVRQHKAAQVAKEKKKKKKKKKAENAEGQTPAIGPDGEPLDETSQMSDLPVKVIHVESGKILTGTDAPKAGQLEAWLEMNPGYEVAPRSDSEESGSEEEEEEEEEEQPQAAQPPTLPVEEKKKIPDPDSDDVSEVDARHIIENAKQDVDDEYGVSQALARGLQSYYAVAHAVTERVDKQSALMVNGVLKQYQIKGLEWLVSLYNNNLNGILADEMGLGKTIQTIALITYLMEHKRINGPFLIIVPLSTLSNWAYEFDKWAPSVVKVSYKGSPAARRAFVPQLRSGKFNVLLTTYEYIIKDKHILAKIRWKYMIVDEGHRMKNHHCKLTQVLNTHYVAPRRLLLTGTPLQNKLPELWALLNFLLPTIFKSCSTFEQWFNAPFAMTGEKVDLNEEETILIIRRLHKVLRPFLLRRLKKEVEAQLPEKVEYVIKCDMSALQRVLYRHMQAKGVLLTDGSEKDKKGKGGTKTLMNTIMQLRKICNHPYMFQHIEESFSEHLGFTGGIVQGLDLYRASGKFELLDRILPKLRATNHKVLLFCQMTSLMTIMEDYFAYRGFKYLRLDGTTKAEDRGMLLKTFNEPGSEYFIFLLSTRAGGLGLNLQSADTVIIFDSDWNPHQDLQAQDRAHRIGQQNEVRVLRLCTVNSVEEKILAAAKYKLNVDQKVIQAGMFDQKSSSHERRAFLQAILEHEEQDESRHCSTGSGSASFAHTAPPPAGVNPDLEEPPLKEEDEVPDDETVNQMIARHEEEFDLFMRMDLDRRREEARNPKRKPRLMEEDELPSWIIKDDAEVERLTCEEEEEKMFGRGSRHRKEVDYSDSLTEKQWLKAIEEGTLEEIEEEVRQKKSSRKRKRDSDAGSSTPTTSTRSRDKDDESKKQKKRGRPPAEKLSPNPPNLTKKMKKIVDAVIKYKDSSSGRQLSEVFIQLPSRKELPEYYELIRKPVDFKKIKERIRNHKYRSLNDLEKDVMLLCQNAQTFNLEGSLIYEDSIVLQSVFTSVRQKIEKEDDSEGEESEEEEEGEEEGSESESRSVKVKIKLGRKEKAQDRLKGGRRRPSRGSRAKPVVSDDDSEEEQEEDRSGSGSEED
Protocol: as §1
A 1:3 compound dose-response titration was diluted in growth media (1:20), added to appropriate wells of a cell culture plate (1:10) and then assay plates were incubated at 37° C., 5% CO2.
Plates were washed with 300 μL per well MSD wash buffer (MSD R61TX-1) between each step. Following the last incubation, plates were washed with MSD wash buffer then 150 uL of MSD read buffer (MSD R92TC-2) was added to each well. Plates were immediately read on a MSD plate reader (MSD Sector Imager 6000) and data was analyzed using a 4-parameter logistic model to calculate IC50 values.

T1 sequence (P51531 whole entry): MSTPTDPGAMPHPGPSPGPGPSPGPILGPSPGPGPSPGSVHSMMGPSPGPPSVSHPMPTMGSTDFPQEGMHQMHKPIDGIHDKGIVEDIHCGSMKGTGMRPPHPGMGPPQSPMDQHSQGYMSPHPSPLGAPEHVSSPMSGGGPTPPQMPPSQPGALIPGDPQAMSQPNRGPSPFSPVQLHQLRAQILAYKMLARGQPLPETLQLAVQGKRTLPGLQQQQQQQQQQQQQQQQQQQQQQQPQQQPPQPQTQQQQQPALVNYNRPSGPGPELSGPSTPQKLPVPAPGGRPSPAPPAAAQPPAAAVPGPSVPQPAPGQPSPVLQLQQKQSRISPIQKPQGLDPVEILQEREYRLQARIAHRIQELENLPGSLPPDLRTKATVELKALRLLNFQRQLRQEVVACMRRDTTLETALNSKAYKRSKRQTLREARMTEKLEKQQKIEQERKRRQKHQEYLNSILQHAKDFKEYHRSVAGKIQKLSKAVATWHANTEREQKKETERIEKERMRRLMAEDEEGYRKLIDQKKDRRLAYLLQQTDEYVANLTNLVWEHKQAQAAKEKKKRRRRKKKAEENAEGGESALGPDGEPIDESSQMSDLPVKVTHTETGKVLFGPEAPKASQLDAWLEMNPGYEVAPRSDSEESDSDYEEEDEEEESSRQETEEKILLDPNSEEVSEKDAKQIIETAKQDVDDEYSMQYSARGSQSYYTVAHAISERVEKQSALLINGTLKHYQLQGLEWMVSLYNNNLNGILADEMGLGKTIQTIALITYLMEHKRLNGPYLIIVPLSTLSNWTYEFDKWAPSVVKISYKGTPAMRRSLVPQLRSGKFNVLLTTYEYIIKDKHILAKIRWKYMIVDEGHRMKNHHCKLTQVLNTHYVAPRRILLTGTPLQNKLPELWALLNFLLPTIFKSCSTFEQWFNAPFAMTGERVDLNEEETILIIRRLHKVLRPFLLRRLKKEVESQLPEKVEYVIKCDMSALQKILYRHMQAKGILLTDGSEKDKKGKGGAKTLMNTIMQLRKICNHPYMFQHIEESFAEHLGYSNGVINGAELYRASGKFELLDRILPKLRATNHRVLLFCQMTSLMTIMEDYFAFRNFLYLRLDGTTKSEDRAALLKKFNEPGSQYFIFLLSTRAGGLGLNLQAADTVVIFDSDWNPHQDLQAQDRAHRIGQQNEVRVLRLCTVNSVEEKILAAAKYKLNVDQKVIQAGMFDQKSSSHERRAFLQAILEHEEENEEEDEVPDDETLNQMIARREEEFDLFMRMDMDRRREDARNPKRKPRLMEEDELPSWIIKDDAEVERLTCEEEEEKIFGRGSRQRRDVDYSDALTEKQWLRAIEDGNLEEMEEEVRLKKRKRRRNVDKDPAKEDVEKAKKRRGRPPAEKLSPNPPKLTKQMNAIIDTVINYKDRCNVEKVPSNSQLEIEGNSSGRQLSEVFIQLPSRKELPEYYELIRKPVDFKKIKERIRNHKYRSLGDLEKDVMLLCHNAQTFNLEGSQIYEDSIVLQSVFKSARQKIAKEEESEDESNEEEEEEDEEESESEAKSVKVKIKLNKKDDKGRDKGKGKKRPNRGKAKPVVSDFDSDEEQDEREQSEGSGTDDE

| Structure (SMILES) | DC50 (SMARCA2) | A375 SMARCA4 MSD IC50 IP (SMARCA4) | further results |
| --- | --- | --- | --- |
| Cc1ncsc1-c1ccc([C@H](C)NC(=O)[C@@H]2C[C@@H](O)CN2C(=O)[C@@H](NC(=O)c2cccc(N3CCN(c4nc(-c5ccccc5O)nnc4N)CC3)n2)C(C)(C)C)cc1 [Example 10, 6-(4-(6-Amino-3-(2-hydroxyphenyl)-1,2,4-triazin-5-yl)piperazin-1-yl)-N—((S)-1-((2S,4R)-4-hydroxy-2-(((S)-1-(4-(4-methylthiazol-5-yl)phenyl)ethyl)carbamoyl)pyrrolidin-1-yl)-3,3-dimethyl-1-oxobutan-2-yl)picolinamide] | 250 nM | – | – |
| Cc1ncsc1-c1ccc([C@H](C)NC(=O)[C@@H]2C[C@@H](O)CN2C(=O)[C@@H](NC(=O)c2cccc(N3CCN(c4cc(-c5ccccc5O)nnc4N)CC3)c2)C(C)(C)C)cc1 [Example 4, (2S,4R)-1-((S)-2-(3-(4-(3-Amino-6-(2-hydroxyphenyl)pyridazin-4-yl)piperazin-1-yl)benzamido)-3,3-dimethylbutanoyl)-4-hydroxy-N—((S)-1-(4-(4-methylthiazol-5-yl)phenyl)ethyl)pyrrolidine-2-carboxamide] | 22 nM | – | – |
| Cc1ncsc1-c1ccc([C@H](C)NC(=O)[C@@H]2C[C@@H](O)CN2C(=O)[C@@H](NC(=O)Cc2ccnc(N3CCN(c4cc(-c5ccccc5O)nnc4N)CC3)c2)C(C)(C)C)cc1 [Example 8, (2S,4R)-1-((S)-2-(2-(2-(4-(3-Amino-6-(2-hydroxyphenyl)pyridazin-4-yl)piperazin-1-yl)pyridin-4-yl)acetamido)-3,3-dimethylbutanoyl)-4-hydroxy-N—((S)-1-(4-(4-methylthiazol-5-yl)phenyl)ethyl)pyrrolidine-2-carboxamide] | – | N/C | A375 SMARCA2 MSD IC50 IP (SMARCA2): N/C |
| Cc1ncsc1-c1ccc([C@H](C)NC(=O)[C@@H]2C[C@@H](O)CN2C(=O)[C@@H](NC(=O)c2csc(N3CCN(c4cc(-c5ccccc5O)nnc4N)CC3)n2)C(C)(C)C)cc1 [Example 5, 2-(4-(3-Amino-6-(2-hydroxyphenyl)pyridazin-4-yl)piperazin-1-yl)-N—((S)-1-((2S,4R)-4-hydroxy-2-(((S)-1-(4-(4-methylthiazol-5-yl)phenyl)ethyl)carbamoyl)pyrrolidin-1-yl)-3,3-dimethyl-1-oxobutan-2-yl)thiazole-4-carboxamide] | 150 nM | – | – |
| Cc1ncsc1-c1ccc([C@H](C)NC(=O)[C@@H]2C[C@@H](O)CN2C(=O)[C@@H](NC(=O)CN2CCN(c3cc(-c4cccc(F)c4O)nnc3N)CC2)C(C)(C)C)cc1 [compound 2, (2S,4R)-1-((S)-2-(2-(4-(3-Amino-6-(3-fluoro-2-hydroxyphenyl)pyridazin-4-yl)piperazin-1-yl)acetamido)-3,3-dimethylbutanoyl)-4-hydroxy-N—((S)-1-(4-(4-methylthiazol-5-yl)phenyl)ethyl)pyrrolidine-2-carboxamide, reference compound] | 420 nM | – | – |
| Cc1ncsc1-c1ccc([C@H](C)NC(=O)[C@@H]2C[C@@H](O)CN2C(=O)[C@@H](NC(=O)c2cccc(N3CCN(c4cc(-c5ccccc5O)nnc4N)CC3)n2)C(C)(C)C)cc1 [Example 2, 6-(4-(3-Amino-6-(2-hydroxyphenyl)pyridazin-4-yl)piperazin-1-yl)-N—((S)-1-((2S,4R)-4-hydroxy-2-(((S)-1-(4-(4-methylthiazol-5-yl)phenyl)ethyl)carbamoyl)pyrrolidin-1-yl)-3,3-dimethyl-1-oxobutan-2-yl)picolinamide] | 120 nM | – | – |
| Cc1ncsc1-c1ccc([C@H](C)NC(=O)[C@@H]2C[C@@H](O)CN2C(=O)[C@@H](NC(=O)c2ccnc(N3CCN(c4cnnc(-c5ccccc5O)c4)CC3)c2)C(C)(C)C)cc1 [Example 11, N—((S)-1-((2S,4R)-4-Hydroxy-2-(((S)-1-(4-(4-methylthiazol-5-yl)phenyl)ethyl)carbamoyl)pyrrolidin-1-yl)-3,3-dimethyl-1-oxobutan-2-yl)-2-(4-(6-(2-hydroxyphenyl)pyridazin-4-yl)piperazin-1-yl)isonicotinamide] | 350 nM | N/C | – |
| Cc1ncsc1-c1ccc([C@H](C)NC(=O)[C@@H]2C[C@@H](O)CN2C(=O)[C@@H](NC(=O)CN2CCN(c3cc(-c4ccccc4O)nnc3N)CC2)C(C)(C)C)cc1 [compound 1, (2S,4R)-1-((S)-2-(2-(4-(3-Amino-6-(2-hydroxyphenyl)pyridazin-4-yl)piperazin-1-yl)acetamido)-3,3-dimethylbutanoyl)-4-hydroxy-N—((S)-1-(4-(4-methylthiazol-5-yl)phenyl)ethyl)pyrrolidine-2-carboxamide, reference compound] | 250 nM | – | DC50 (SMARCA4; read-out: A375 SMARCA4 MSD IC50 IP): 840 nM |

The next lines start with results.

| DC50 (SMARCA2) | A375 SMARCA4 MSD IC50 IP (SMARCA4) | Structure (SMILES) | further results |
| --- | --- | --- | --- |
| – | N/C | Cc1ncsc1-c1ccc([C@H](C)NC(=O)[C@@H]2C[C@@H](O)CN2C(=O)[C@@H](NC(=O)CCc2ccnc(N3CCN(c4cc(-c5ccccc5O)nnc4N)CC3)c2)C(C)(C)C)cc1 [Example 9, (2S,4R)-1-((S)-2-(3-(2-(4-(3-Amino-6-(2-hydroxyphenyl)pyridazin-4-yl)piperazin-1-yl)pyridin-4-yl)propanamido)-3,3-dimethylbutanoyl)-4-hydroxy-N—((S)-1-(4-(4-methylthiazol-5-yl)phenyl)ethyl)pyrrolidine-2-carboxamide] | A375 SMARCA2 MSD IC50 IP (SMARCA2): N/C |
| 110 nM | – | Cc1ncsc1-c1ccc(CNC(=O)[C@@H]2C[C@@H](O)CN2C(=O)[C@@H](NC(=O)c2ccnc(N3CCN(c4cc(-c5ccccc5O)nnc4N)CC3)c2)C(C)(C)C)cc1 [Example 1, 2-(4-(3-Amino-6-(2-hydroxyphenyl)pyridazin-4-yl)piperazin-1-yl)-N—((S)-1-((2S,4R)-4-hydroxy-2-((4-(4-methylthiazol-5-yl)benzyl)carbamoyl)pyrrolidin-1-yl)-3,3-dimethyl-1-oxobutan-2-yl)isonicotinamide] | – |
| 190 nM | – | Cc1ncsc1-c1ccc([C@H](C)NC(=O)[C@@H]2C[C@@H](O)CN2C(=O)[C@@H](NC(=O)c2ccc(N3CCN(c4cc(-c5ccccc5O)nnc4N)CC3)s2)C(C)(C)C)cc1 [Example 6, (2S,4R)-1-((S)-2-(5-(4-(3-Amino-6-(2-hydroxyphenyl)pyridazin-4-yl)piperazin-1-yl)thiophene-2-carboxamido)-3,3-dimethylbutanoyl)-4-hydroxy-N—((S)-1-(4-(4-methylthiazol-5-yl)phenyl)ethyl)pyrrolidine-2-carboxamide] | – |
| – | N/C | Cc1ncsc1-c1ccc([C@H](C)NC(=O)[C@@H]2C[C@@H](O)CN2C(=O)[C@@H](NC(=O)c2ccc(N3CCN(c4cc(-c5ccccc5O)nnc4N)CC3)nc2)C(C)(C)C)cc1 [Example 7, 6-(4-(3-Amino-6-(2-hydroxyphenyl)pyridazin-4-yl)piperazin-1-yl)-N—((S)-1-((2S,4R)-4-hydroxy-2-(((S)-1-(4-(4-methylthiazol-5-yl)phenyl)ethyl)carbamoyl)pyrrolidin-1-yl)-3,3-dimethyl-1-oxobutan-2-yl)nicotinamide] | A375 SMARCA2 MSD IC50 IP (SMARCA2): N/C |
| 43 nM | – | Cc1ncsc1-c1ccc([C@H](C)NC(=O)[C@@H]2C[C@@H](O)CN2C(=O)[C@@H](NC(=O)c2ccnc(N3CCN(c4cc(-c5ccccc5O)nnc4N)CC3)c2)C(C)(C)C)cc1 [Example 3, 2-(4-(3-Amino-6-(2-hydroxyphenyl)pyridazin-4-yl)piperazin-1-yl)-N—((S)-1-((2S,4R)-4-hydroxy-2-(((S)-1-(4-(4-methylthiazol-5-yl)phenyl)ethyl)carbamoyl)pyrrolidin-1-yl)-3,3-dimethyl-1-oxobutan-2-yl)isonicotinamide] | – |
